The results in this text go back to publication PMC7687128, “Extracellular loops matter – subcellular location and function of the lysine transporter Lyp1 from Saccharomyces cerevisiae” (The Febs Journal, 2020).

Substitutions are numbered along the chain they refer to. Names and notes keep the numbering of the source. Some results are limits rather than exact numbers.

Data set [1] concerns the target T1, Lyp1 (Lyp1-YPet) (Saccharomyces cerevisiae, UniProt P32487).
T1 construct: full-length, YPet fluorescent protein fusion, plasmid-expressed in S. cerevisiae, assayed in whole cells
T1 sequence (P32487 1-611): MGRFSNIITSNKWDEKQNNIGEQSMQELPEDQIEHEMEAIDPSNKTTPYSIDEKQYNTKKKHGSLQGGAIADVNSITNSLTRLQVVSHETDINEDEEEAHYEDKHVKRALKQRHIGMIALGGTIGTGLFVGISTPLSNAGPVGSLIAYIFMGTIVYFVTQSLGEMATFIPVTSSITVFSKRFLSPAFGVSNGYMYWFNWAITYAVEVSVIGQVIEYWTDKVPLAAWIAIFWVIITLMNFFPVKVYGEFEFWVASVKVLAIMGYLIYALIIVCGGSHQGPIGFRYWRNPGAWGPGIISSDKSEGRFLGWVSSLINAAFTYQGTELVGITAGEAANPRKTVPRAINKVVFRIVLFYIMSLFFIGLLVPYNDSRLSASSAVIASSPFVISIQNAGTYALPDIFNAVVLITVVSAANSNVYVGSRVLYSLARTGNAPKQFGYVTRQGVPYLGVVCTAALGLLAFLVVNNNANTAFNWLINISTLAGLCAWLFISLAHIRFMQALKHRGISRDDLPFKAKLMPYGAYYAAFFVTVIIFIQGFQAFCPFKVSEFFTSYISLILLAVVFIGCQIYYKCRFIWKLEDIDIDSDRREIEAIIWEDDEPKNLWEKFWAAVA
As to the kind of experiment: competition with […]-lysine uptake in S. cerevisiae cells. Format: cell-based. The following applies: 20 µM [14C]-lysine, 100 mM potassium phosphate, 10 mM glucose, pH 6.0, 30 °C; competitor.

The target of data set [2] is T2, Lyp1 (Lyp1-YPet) (Saccharomyces cerevisiae, UniProt P32487, I280A/G281A/F282A).
T2 construct: full-length, YPet fluorescent protein fusion, plasmid-expressed in S. cerevisiae, assayed in whole cells
T2 sequence (P32487 1-611 I280A/G281A/F282A): T1 sequence (P32487 1-611) with I280A, G281A, F282A
As to the kind of experiment: initial rate of […]-lysine uptake in S. cerevisiae cells. Format: cell-based. To be noted: out-to-in transport; 100 mM potassium phosphate, 10 mM glucose, pH 6.0, 30 °C; labelled compound.

In data set [3] the target is T3, Lyp1 (Lyp1-YPet) (Saccharomyces cerevisiae, UniProt P32487, G289A/W291A).
T3 construct: full-length, YPet fluorescent protein fusion, plasmid-expressed in S. cerevisiae, assayed in whole cells
T3 sequence (P32487 1-611 G289A/W291A): T1 sequence (P32487 1-611) with G289A, W291A
The data set is described as above. Format: cell-based. The following applies: out-to-in transport; 100 mM potassium phosphate, 10 mM glucose, pH 6.0, 30 °C; labelled compound.

Substrate in data set [4]: NCCCC[C@H](N)C(=O)O
As to the kind of experiment: cells, lysate or membranes. To be noted: out-to-in transport, 100 mM potassium phosphate, 10 mM glucose, pH 6.0, 30 °C, labelled compound. Type of data set: cell-based, Saccharomyces cerevisiae.

Consider `N=C(N)NCCC[C@H](N)C(=O)O` [arginine], for which, on Lyp1 (Lyp1-YPet) [1], the “% reduction of lysine transport at 100 mM” value (shortened to “% reduction”) was above 80%.

For `C[C@H](N)C(=O)O` [alanine], the “% reduction” value at Lyp1 (Lyp1-YPet) [1] was above 80%.

The Km is the substrate concentration at which the rate is half of its maximum. With `NCCCC[C@H](N)C(=O)O` [L-lysine], the Km on Lyp1 (Lyp1-YPet) [2] and at Lyp1 (Lyp1-YPet) [3] was above 100 µM each time.

On to `N[C@@H](Cc1cnc[nH]1)C(=O)O` [histidine], for which the “% reduction” value on Lyp1 (Lyp1-YPet) [1] was above 80%.

B1: Lyp1 (Lyp1-YPet) (Saccharomyces cerevisiae S288C) (protein)
chain: T1 sequence (P32487 1-611)
notes: full-length, YPet fluorescent protein fusion, plasmid-expressed in S. cerevisiae, assayed in whole cells
Consider B1, for which the Km in data set [4] is 10 µM.

B2: Lyp1 (Lyp1-YPet) (Saccharomyces cerevisiae S288C; E215A/W217A/Y216A) (protein)
chain: T1 sequence (P32487 1-611) with E215A, Y216A, W217A
notes: as for B1
For the molecule B2, the Km in data set [4] came out at 34 ± 17 µM.

B3: Lyp1 (Lyp1-YPet) (Saccharomyces cerevisiae S288C; N390A/Q389A) (protein)
chain: T1 sequence (P32487 1-611) with Q389A, N390A
notes: as for B1
On to B3, for which the Km in data set [4] is listed as 7.4 ± 1.0 µM.

B4: Lyp1 (Lyp1-YPet) (Saccharomyces cerevisiae S288C; G292A/G294A/P293A) (protein)
chain: T1 sequence (P32487 1-611) with G292A, P293A, G294A
notes: as for B1
With B4, the Km in data set [4] worked out at 63 ± 83 µM.

B5: Lyp1 (Lyp1-YPet) (Saccharomyces cerevisiae S288C; F471A/T469A) (protein)
chain: T1 sequence (P32487 1-611) with T469A, F471A
notes: as for B1
As for B5, the Km in data set [4] stood at 25 ± 21 µM.
